In US20260248131A1, “AGROCHEMICAL FORMULATIONS COMPRISING CRYSTALLINE FORM A OF 4-[(6-CHLORO-3-PYRIDYL-METHYL )(2,2-DIFL UOROETHYL )AMINO]FURAN-2(5H)-ONE” (BAYER AKTIENGESELLSCHAFT, priority 2022, published 2026):
In brackets after ≈: the same amount, converted by molar mass.

Legend:
physchem = assay type: physicochemical
Description: The water solubility of FPF polymorph A and B was determined by saturating a certain amount of demineralized water with the respective polymorph, stirring the resulting saturated suspension overnight, filtering the undissolved solid residue, and measuring the dissolved concentration of FPF in the filtrate.

[1] = test system: bird cherry-oat aphid Rhopalosiphum padi; assay: Systemic efficacy of FPF FS 480 as barley seed treatment against aphids; assay type: in vivo; conditions: seed treatment with FS 480
Description: Physico-chemical properties are key drivers for systemic plant uptake and biological activity. To test the efficacy of different FPF modifications against the bird cherry-oat aphid Rhopalosiphum padi a sufficient number of barley seeds (variety “Scarlett”, thousand kernel weight: 43.6 g) were manually dressed with a defined amount of the Flupyradifurone FS480 formulated with 100% Form A, 100% Form B and a combination of 99% Form A and 1% Form B, respectively. Test concentrations were 0.15 g active ingredient per kg of seed (commercial dose rate in cereals) and 0.075 g active ingredient per kg of seed. Longitudinal boxes were filled with 5,900 g of a sandy loam soil (75.1% sand, 10.3% clay, 14.8% silt, 1.75% humus, pH 6.9) and 15 seeds per box were sown at spacing of approx. 2.5 cm and at depth of 3 cm. After sowing, boxes were watered to reach 50-70% of field capacity and covered with plastic foil until first plants were emerging. Aphid infestation was conducted at the second leaf stage by adding multiple pieces of infested leaf material to each test box. A second re-infestation was carried out at 3 days after the first infestation using methods described previously. The biological activity of tested FPF modifications was evaluated at 3 and 7 days after the initial infestation by a visual assessment of the colonized leaf area in comparison to the untreated and infested control. Results were expressed in percent efficacy. […] Growing conditions were at a constant temperature of 20° C., 50% relative humidity and 14 hours of illumination using sodium pressure lamps. The experiment comprised 3 replicates per treatment.

SMILES | Water Solubility (physchem) [µg/mL] | reduced water solubility of FPF form A (physchem) [%] | water solubility compared with form B (physchem) | water solubility of polymorphic form A as share of that of polymorphic form B (physchem) [%] | solubility (physchem; water, thermodynamic from solid, Water Solubility) [µg/mL] | systemic biological efficacy compared with form B ([1]; listed as FPF form A) | systemic biological efficacy compared with form B ([1]; listed as form A) | systemic biological efficacy compared with form B ([1]; listed as polymorphic form A)
O=C1C=C(N(Cc2ccc(Cl)nc2)CC(F)F)CO1 [Polymorph B, 4-[(6-chloro-3-pyridylmethyl)(2,2-difluoroethyl)amino]furan-2(5H)-one, reference compound] | 3200 |  |  |  |  |  |  | 
O=C1C=C(N(Cc2ccc(Cl)nc2)CC(F)F)CO1 [Polymorph A, 4-[(6-chloro-3-pyridylmethyl)(2,2-difluoroethyl)amino]furan-2(5H)-one] |  | 60 | significantly lower than that of form B | 60 | 2000 (≈ 6.93 mM) | does not lead to a reduced biological efficacy in comparison to FPF form B | not reduced | at the same level as that of polymorphic form B
